Measured values taken from patent publication US12663426B2, “Method and composition for measurement of nitric oxide” (The University of Chicago, priority 2019, dated 2026).
Like-named read-outs stand apart in the source and are kept apart here. Values belong to the molecule of their own block, whether it stands above or below them.

Legend:
NOS3 = experiment: Sub-cellular nitric oxide quantification (rate of NO production, in-cell calibration); type: cell-based; settings: T-47D cells, 1 μM thapsigargin
Protocol: (§1) Sub-cellular nitric oxide quantification. […] (FIG. 16).
After characterizing NO releasing profile of DEA NONOate, cellular NO production was compared to NO released from DEA-NONOate. […] As expected G/B intensity increases over time and the rate of increase is proportional to DEA-NONOate concentration. Then 1 μM thapsigargin was added to get the initial rate of NO production at the plasma membrane.
Note this only applies to the initial phase of DAR activation where [DAR] can be considered as constant. From the predicted [NO] from DEA-NONOate, the tested concentration of NONOate, the first 30 s [NO] increases with t. […]
Using the calibration curve, the initial G/B rates from thapsigargin treated cells is plugged in and the plasma membrane NO production was measured to be 576±61 nM/s (FIG. 3e).
Next, in order to measure the relative activities of NOS3 at the plasma membrane and the TGN, a method was developed to quantify sub-cellular NO generated due to NOS3 activity. […] As the effective concentration of NO at any time, [NO]eff, changes with time, NOS3 activity is best quantified by the rate of NO production. […]
An in-cell calibration protocol was developed to measure the rate of NO production for various concentrations of DEA-NONOate using NOckout probes. […] NOckout^PM labeled cells was then treated with 1 μM thapsigargin and measured the rate of NO production given by the increasing G/B ratio. […]

NOS2 = biological target: T1, NOS2 (Mus musculus, UniProt P29477); experiment: In cellulo specificity of NOckout to NO in LPS primed J774A.1 cells; type: cell-based; settings: J774 cells, LPS; VAS2870 10 μM, ABAH 50 μM
T1 construct: J774A.1 cells were treated with 1 μg/mL LPS for 12 h prior to the addition of NOckout; endogenous in cells; host or cells: J774A.1 macrophages primed with LPS
Protocol: Pharmacological inhibition: Pharmacological inhibition of different enzymes were performed by employing known inhibitors. […] Cells were bathed in inhibitors 1 h prior to the addition of NOckout probes during the specificity experiment performed in J774A.1 cells.
In cellulo specificity of NOckout to NO: In cellulo specificity of the NOckout probe towards NO^− was validated in J774A.1 cells. […] J774A.1 cells were treated with 1 μg/mL LPS for 12 h prior to the addition of NOckout (500 nM in HBSS) either in the presence or in absence of specific inhibitors. LPS addition was employed to induce the expression of NOS2NOX and MPO. […] After 90 minutes of incubation with the NOckout culture media was removed from the cells and three washes were performed using HBSS to remove extracellular NOckout before proceeding to the fluorescence imaging. […]
The in-cell specificity of NOckout can be evaluated by measuring the contribution of the reactive species produced by NOX, MPO and NOS2 to the observed fold change in G/R ratio upon LPS stimulation. […] As NOS2 activity is not pan-endosomal, specificity is given by quantifying the percentage of endosomes that show G/R values higher than the mean G/R value in endosomes of unstimulated, NOS2 inhibited cells, as the latter corresponds to basal endosomal NO levels (FIG. 6c).

murine TLR-9 = biological target: T2, murine TLR-9 (Mus musculus, UniProt Q9EQU3); experiment: Endosomal NO in primary mouse microglia with NOckout^mCpG; type: cell-based
T2 construct: endogenous in cells; host or cells: primary microglia from C57BL/6 mice
T2 sequence (Q9EQU3 26-1032): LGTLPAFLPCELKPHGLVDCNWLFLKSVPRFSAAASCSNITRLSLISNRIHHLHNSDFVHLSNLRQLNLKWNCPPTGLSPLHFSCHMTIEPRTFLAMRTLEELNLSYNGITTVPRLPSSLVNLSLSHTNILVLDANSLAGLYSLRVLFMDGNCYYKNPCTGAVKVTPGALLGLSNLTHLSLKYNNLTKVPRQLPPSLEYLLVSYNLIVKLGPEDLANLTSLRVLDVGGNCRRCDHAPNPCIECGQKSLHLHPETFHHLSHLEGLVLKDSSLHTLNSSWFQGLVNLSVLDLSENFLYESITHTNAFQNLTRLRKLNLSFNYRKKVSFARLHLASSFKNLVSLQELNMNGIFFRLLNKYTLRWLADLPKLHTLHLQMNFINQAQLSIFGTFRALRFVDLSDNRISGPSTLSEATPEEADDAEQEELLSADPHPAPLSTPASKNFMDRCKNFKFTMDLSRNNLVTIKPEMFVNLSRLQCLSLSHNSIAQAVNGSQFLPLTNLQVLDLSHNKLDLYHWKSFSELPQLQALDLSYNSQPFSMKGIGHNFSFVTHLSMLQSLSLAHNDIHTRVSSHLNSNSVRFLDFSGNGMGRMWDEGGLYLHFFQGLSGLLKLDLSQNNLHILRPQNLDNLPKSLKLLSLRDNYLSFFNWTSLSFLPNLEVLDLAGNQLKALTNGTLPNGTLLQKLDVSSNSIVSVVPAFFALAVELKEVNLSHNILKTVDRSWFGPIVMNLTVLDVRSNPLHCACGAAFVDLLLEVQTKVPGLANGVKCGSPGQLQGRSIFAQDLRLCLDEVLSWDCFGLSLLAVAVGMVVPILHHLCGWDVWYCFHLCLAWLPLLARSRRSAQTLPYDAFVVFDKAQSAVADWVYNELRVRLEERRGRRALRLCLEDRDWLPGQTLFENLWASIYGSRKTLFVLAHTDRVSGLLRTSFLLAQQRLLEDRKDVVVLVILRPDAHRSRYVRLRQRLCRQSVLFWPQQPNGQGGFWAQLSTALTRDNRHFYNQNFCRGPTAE
Description: Image analysis: A MATLAB based program called Findosome was used to calculate the (G/R) values of individual endosomes from the acquired images. Maximum Z-projected images created using Fiji (NIH) were fed to Findosome to pick endosomal compartments as ROI corresponding to individual endosomes based on the A647 channel intensity. For each ROI, the program calculates fluorescence intensities both in the normalizing channel (A647, R) as well as in the DAR (G) channel. The results were exported as an excel file. From the results, (G/R) value for individual endosomes can be calculated. Phagosomal (G/R) values from the zebrafish microglia are calculated using Fiji software. Images were imported to Fiji and maximum Z-projected images were created. ROI were manually drawn around clearly identifiable phagosomes using the normalizing channel A647 intensity. Fluorescence intensities in A647 and DAR channels were calculated. G/R values are either represented as heat map images using Fiji or as bar graph using Origin software. Intracellular measurements of (G/R) values was performed in GFP colocalized microglia. For (G/R) ratio quantification experiments, only those vesicles that are present in both green (G) and red (R) channels were considered. […]

[1] = 37° C., 100 mM phosphate buffer (pH 7.4); cited from earlier work
[2] = Decomposition / NO release of DEA NONOate; type: physicochemical
Description: as §1
Additionally, DEA-NONOate concentration follows first order decay and can be described with initial DEA-NONOate concentration (indicated by [NONOate]0).
Next, in order to measure the relative activities of NOS3 at the plasma membrane and the TGN, a method was developed to quantify sub-cellular NO generated due to NOS3 activity. […] As the effective concentration of NO at any time, [NO]eff, changes with time, NOS3 activity is best quantified by the rate of NO production. Therefore, the decomposition rate constant (k1 sec^−1) of DEA-NONOate was first measured from its UV absorbance at 250 nm, to obtain [NO]eff over time in solution for fixed DEA-NONOate concentrations (FIG. 17a, Methods) (Ramamurthi, A. & Lewis, R. S. Measurement and modeling of nitric oxide release rates for nitric oxide donors. Chem. Res. Toxicol. 10, 408-413 (1997)). […]
In vitro fluorescence measurements: All fluorescence studies were carried out on a Fluoromax-4 (Horiba Scientific, Japan) spectrophotometer. […] Fluorescence emission spectra were collected in the range of 560-620 nm (slit width=2 nm) for DAR and 655-700 nm (slit width=2 nm) for A647N. […] Fluorescence signal from NOckout. […] was recorded sequentially in the DAR (G) and A647N (R) channels before and after the addition of DEANONOate (30 μM) at timed intervals (30 s). […]

TNF-α = TNF-α quantification by ELISA in J774A.1 cells; type: cell-based; settings: 500 nM, 2 h
Protocol: TNF-α Quantification: To quantify the immunogenicity NOckout probes and the corresponding immunogen alone, ELISA for TNF-α was performed in J774A.1 cells. Briefly, J774A.1 cells cultured in DMEM were incubated with 500 nM NOckout sensors, CpG nucleotides, RNA, or LPS at 37° C. for 2 h. Postincubation 100 μL of extracellular medium from the culture was used to perform TNF-α quantification using ELISA kit (Cayman, catalog number 500850) according to manufacturers instructions. The calibration curve for TNF-α was generated using recombinant. TNF-α as per the vendor's instructions.
We treated J774A.1 cells with each PAMP motif, for example mCpG, zCpG, RNA, or iRNA and their corresponding NOckout display vairent and quantified TNFα in the extracellular milieu by enzyme-linked immunisorbent assay (ELISA) (FIG. 47). […] This is because, beyond 2 h in cell culture, the probe is degraded in lysosomes, likely by DNase II, NOckout probes therefore can reliably report on endosomal NO levels only up to 2 h postinternalization (FIG. 45).

Molecule: C/C=C(/C)C(=O)O[C@H]1C(C)=C2[C@H]([C@@H]1OC(=O)CCCCCCC)[C@@](C)(OC(C)=O)C[C@H](OC(=O)CCC)[C@@]1(O)[C@H]2OC(=O)[C@@]1(C)O [thapsigargin]
rate of NO production at the plasma membrane (NOS3; NOckout^PM): 576 ± 61 nM/s
initial rate of NO production at the TGN (NOS3; NOckout^TGN): 74 ± 41 nM/s

NO signal of NOckout with inhibitor (NOS2): did not reduce NO signal
Molecule: c1ccc(Cn2nnc3c(Sc4nc5ccccc5o4)ncnc32)cc1 [VAS2870]

Molecule: CO/C1=C\C(C)=C\[C@@H](C)[C@@H](O)[C@@H](C)C/C(C)=C/C=C/[C@H](OC)[C@@H]([C@@H](C)[C@@H](O)[C@H](C)[C@@]2(O)C[C@@H](O)[C@H](C)[C@@H](C(C)C)O2)OC1=O [BAF]
endosomes with G/R value≥0.45 (murine TLR-9; primary microglial cells, NOckout^mCpG 500 nM 120 min, without or with 200 nM BAF): 50%

Molecule: CCN(CC)/[N+]([O-])=N/O.CCNCC [DEA NONOate, Diethylamine NONOate]
half-life [1]: 2 min
k1, decomposition rate constant ([2]; calculated from UV absorption at 250 nm): 0.00131 s⁻¹
half-life ([2]; pH 7.4 at 25° C.): about 9 min

Molecule: NOckout^mGpC: control of NOckout^mCpG with non-immunostimulatory GpC motifs (TGCTGTCTGGTGTGCAGTGTTGATTTTCCATGAGCTTCCTGACCTT; DNA nanodevice strand, phosphorothioate ODN overhang and dyes, pattern not given here)
TNF-α in the extracellular milieu (TNF-α): dramatic reduction in TNF-α levels
reduction of NO-rich endosomes (murine TLR-9; primary microglia, versus NOckout^mCpG, n=100 endosomes): 40%
